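Each compound was tested at five concentrations against cells in 96-well plates for 48 hours. GI50: concentration for 50% inhibition of growth. TGI marks complete inhibition of growth.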
Columns and labels:
Assay in all cases: inhibition of tumour cell growth, NCI panel, 48 h
HT29 colon = tested on: HT29 colon
K-562 leukemia = tested on: K-562 leukemia
LOX IMVI melanoma = tested on: LOX IMVI melanoma
M14 melanoma = tested on: M14 melanoma
MDA-N = tested on: MDA-N
NCI-H23 lung = tested on: NCI-H23 lung
NCI-H460 lung = tested on: NCI-H460 lung
OVCAR-4 ovarian = tested on: OVCAR-4 ovarian
OVCAR-5 ovarian = tested on: OVCAR-5 ovarian
TK-10 renal = tested on: TK-10 renal
UO-31 renal = tested on: UO-31 renal
MALME-3M melanoma = tested on: MALME-3M melanoma

Row | Compound | TGI (HT29 colon) | TGI (K-562 leukemia) | TGI (LOX IMVI melanoma) | TGI (M14 melanoma) | TGI (MDA-N) | TGI (NCI-H23 lung) | TGI (NCI-H460 lung) | TGI (OVCAR-4 ovarian) | TGI (OVCAR-5 ovarian) | TGI (TK-10 renal) | TGI (UO-31 renal) | GI50 (LOX IMVI melanoma) | TGI (MALME-3M melanoma) | GI50 (NCI-H23 lung) | GI50 (NCI-H460 lung) | GI50 (OVCAR-4 ovarian) | GI50 (TK-10 renal)
1 | CCCCCCCCCCCCCCNC(=O)CCC(NC(=O)c1ccc(N(C)Cc2cnc3nc(N)nc(N)c3n2)cc1)C(=O)NCCCCCCCCCCCCCC (configuration not stated) | 27 µM | > 100 µM | > 100 µM | > 40.4 µM | 21.9 µM | 20.8 µM | 13.1 µM | 40.9 µM | > 48.3 µM | > 86.2 µM | 53.6 µM |  |  |  |  |  | 
2 | O=C(NC(=O)c1ccccc1[N+](=O)[O-])Nc1ccc(Oc2ncc(Br)cn2)c(Cl)c1 | 0.0568 µM |  | > 100 µM |  | < 0.0159 µM |  |  |  | 0.0522 µM |  |  | < 20.8 nM | 0.0537 µM | < 20.9 nM | < 19.7 nM | 7.58 µM | 10.5 µM
3 | c1ccc(N=c2sc3ccccc3nc2Nc2ccccc2)cc1 | > 100 µM | > 100 µM | > 100 µM |  |  | > 100 µM | > 100 µM | > 100 µM | > 100 µM | > 100 µM | > 100 µM |  | > 100 µM |  |  |  | 
4 | O=C(N/N=C(/COc1ccc(Cl)cc1)N=Cc1ccncc1)c1ccncc1 | > 100 µM | > 100 µM | > 100 µM | > 100 µM | > 100 µM | > 100 µM | > 100 µM | > 100 µM | > 100 µM | > 100 µM |  |  | > 100 µM |  |  |  | 
5 | O=[N+]([O-])c1ccc2c(c1)c(OCc1ccccc1)nn2Cc1ccccc1 | > 100 µM | > 100 µM | > 100 µM | > 100 µM | > 100 µM | > 100 µM | > 100 µM |  | > 100 µM | > 100 µM | > 100 µM |  | > 100 µM |  |  |  | 
6 | Nc1nc(Cl)cc(NCC2(CO)CC(=O)C2)n1 | > 100 µM | > 100 µM | > 100 µM |  |  | > 100 µM | > 100 µM | > 100 µM | > 100 µM | > 100 µM | > 100 µM |  | > 100 µM |  |  |  | 
7 | COc1cccc(C(=O)O[C@H]2[C@@H]3[C@]4(OC(C)=O)CO[C@@H]4C[C@H](O)[C@@]3(C)C(=O)[C@H](OC(C)=O)C3=C(C)[C@@H](OC(=O)[C@H](O)[C@@H](NC(=O)OC(C)(C)C)c4ccco4)C[C@]2(O)C3(C)C)c1 | 0.133 µM |  | > 15.6 µM | 5.9 µM | 0.0382 µM | > 37.5 µM | > 37.5 µM | > 37.5 µM | > 22.8 µM | 27.4 µM | > 35 µM |  | > 37.5 µM |  |  |  | 
8 | O=C1/C(=C/c2ccccc2)N=C2Sc3c(nc[nH]c3=O)N12 | > 100 µM | 83.5 µM | > 100 µM | > 100 µM |  | > 100 µM |  | > 100 µM | > 100 µM | > 100 µM | > 100 µM |  | > 100 µM |  |  |  | 
9 | CCCN(C(=O)c1ccccc1)C(C#N)c1ccc(C(C#N)N(CCC)C(=O)c2ccccc2)cc1 (configuration not stated) | > 100 µM | > 100 µM | > 100 µM | > 100 µM | > 100 µM | > 100 µM |  | 66.7 µM | > 100 µM | > 100 µM | > 100 µM |  | > 100 µM |  |  |  | 
10 | O=C1CCCc2cc3c(cc21)CC1(Cc2ccccc2C1)C3 | 8.6 µM | 7.74 µM | 28.6 µM | 25.3 µM |  | > 100 µM |  | 63.9 µM | > 100 µM | > 100 µM |  |  | 70.1 µM |  |  |  | 
11 | COC(=O)c1cc(=O)nc2sc3cccc(C)c3n12 | > 100 µM | > 100 µM | 33.8 µM | > 100 µM | > 100 µM | > 100 µM | > 100 µM | > 100 µM | > 100 µM | > 100 µM |  |  | 70.1 µM |  |  |  | 
12 | Cc1n[nH]c(=O)n1/N=C/c1ccc(Cl)cc1 |  | > 100 µM |  | > 100 µM | > 100 µM | > 100 µM | > 100 µM | > 100 µM | > 100 µM |  | > 100 µM |  |  |  |  |  | 
13 | C=C(C)C(=O)OC1C/C(CO)=C\C(O)C/C(C)=C/C2OC(=O)C(=C)C21 (configuration not stated) | 34.1 µM | 58.2 µM | 35 µM | 40.6 µM |  |  | 35 µM | 63.4 µM | > 100 µM | 41.2 µM | > 100 µM |  | 39 µM |  |  |  | 
14 | CCCCC#C[I+]c1ccccc1 | 32 µM | 40.3 µM | 26.9 µM | 29 µM |  | 27.3 µM | 26.9 µM | 28.9 µM | 28 µM | 28.6 µM | 30 µM |  | 28.2 µM |  |  |  | 
15 | COc1cc(C(=O)N(C(=S)OCc2ccccn2)c2ccccc2)cc(OC)c1OC | > 100 µM | > 100 µM | > 100 µM | > 100 µM | > 100 µM | > 100 µM | > 100 µM |  | > 100 µM | > 100 µM | 86.5 µM |  | 62 µM |  |  |  | 
16 | C[C@@H]1CC[C@]2(C(=O)O)CC[C@]3(C)C(=CC[C@@H]4[C@@]5(C)CC[C@H](O)C(C)(C)[C@@H]5CC[C@]43C)[C@@H]2[C@]1(C)O |  | 19.6 µM | 29.5 µM | 8.1 µM |  | 35.9 µM | 17.3 µM | 30.5 µM | 31.5 µM | 27.5 µM | 23.5 µM |  | 25.7 µM |  |  |  | 
17 | CC1(C)OC(=O)N(c2ccccc2)C12C=Cc1cc([N+](=O)[O-])cc([N+](=O)[O-])c1O2 (configuration not stated) | > 100 µM | > 100 µM | > 100 µM | > 100 µM | > 100 µM | > 100 µM | > 100 µM | > 100 µM | > 100 µM | > 100 µM | > 100 µM |  |  |  |  |  | 
18 | CCOC(=O)/C=C/CC(C)(C)CCOC(C)=O | > 10 µM | > 10 µM | > 10 µM | > 10 µM | > 10 µM | > 10 µM | > 10 µM | > 10 µM | > 10 µM | > 10 µM | > 10 µM |  |  |  |  |  | 
19 | Cc1c(O)c(O)cc[n+]1C1OC(CO)C(O)C1O (configuration not stated) | > 100 µM | > 100 µM | > 100 µM | > 100 µM |  | > 100 µM | > 100 µM | > 100 µM | > 100 µM | > 100 µM | > 100 µM |  | > 100 µM |  |  |  | 
20 | CCOC(=O)c1cn2c(n1)sc1cccc(C)c12 |  |  | > 100 µM | > 100 µM | > 100 µM | > 100 µM | > 100 µM |  | > 100 µM | > 100 µM | > 100 µM |  | > 100 µM |  |  |  | 
